Source: patent publication US10195156B2, “Compounds and compositions for intracellular delivery of agents” (ModernaTX, Inc., priority 2015, dated 2019)
Blank lines part the entries; values can stand above or below the molecule they belong to.

Experiments:
[1] = pKa of nanoparticle compositions; format: physicochemical
[2] = Particle size and polydispersity index of nanoparticle compositions (Zetasizer Nano ZS); format: physicochemical; conditions: for particle size, rank within the named table (in words): comparison amongst compositions
Experimental: A Zetasizer Nano ZS (Malvern Instruments Ltd, Malvern, Worcestershire, UK) can be used to determine the particle size, the polydispersity index (PDI) and the zeta potential of the nanoparticle compositions in 1×PBS in determining particle size and 15 mM PBS in determining zeta potential.

[3] = Encapsulation efficiency of RNA (QUANT-IT RIBOGREEN RNA assay); format: physicochemical; conditions: for encapsulation efficiency, rank within the named table (in words): comparison amongst compositions
Experimental: For nanoparticle compositions including an RNA, a QUANT-IT™ RIBOGREEN® RNA assay (Invitrogen Corporation Carlsbad, Calif.) can be used to evaluate the encapsulation of an RNA by the nanoparticle composition. The samples are diluted to a concentration of approximately 5 μg/mL in a TE buffer solution (10 mM Tris-HCl, 1 mM EDTA, pH 7.5). 50 μL of the diluted samples are transferred to a polystyrene 96 well plate and either 50 μL of TE buffer or 50 μL of a 2% Triton X-100 solution is added to the wells. The plate is incubated at a temperature of 37° C. for 15 minutes. The RIBOGREEN® reagent is diluted 1:100 in TE buffer, and 100 μL of this solution is added to each well. The fluorescence intensity can be measured using a fluorescence plate reader (Wallac Victor 1420 Multilablel Counter; Perkin Elmer, Waltham, Mass.) at an excitation wavelength of, for example, about 480 nm and an emission wavelength of, for example, about 520 nm. The fluorescence values of the reagent blank are subtracted from that of each of the samples and the percentage of free RNA is determined by dividing the fluorescence intensity of the intact sample (without addition of Triton X-100) by the fluorescence value of the disrupted sample (caused by the addition of Triton X-100).

[4] = test system: modified luciferase expression; assay: Expression of Luc in different organs (liver, lung, spleen, femur) 6 hours after intravenous administration; format: in vivo; conditions: i.v., 0.5 mpk; for total flux in organs, rank or organ comparison (in words): each organ or overall
Experimental: The efficacy of the nanoparticle compositions presented in Tables 1, 1a, 17-1, 19-1, 20-1 and 21-1 was further evaluated by measuring the expression of modified luciferase in the liver, lung, spleen, and femur upon administration of a given composition. Formulations were administered intravenously to mice (n=3) at a dosage of 0.5 mpk and bioluminescence measured after 6 hours. The standard MC3 formulation and a PBS control were also tested.

[5] = test system: luciferase (Luc) mRNA expression; assay: Expression of Luc induced by sample formulations, whole-body bioluminescence after intravenous administration; format: in vivo; conditions: mice, i.v., 0.5 mg/kg; for total flux / Luc expression, rank within the named table (in words): each time point
Experimental: In order to monitor how effectively various nanoparticle compositions deliver therapeutic and/or prophylactic agents to targeted cells, different nanoparticle compositions including a particular therapeutic and/or prophylactic agent (for example, a modified or naturally occurring RNA such as an mRNA) are prepared and administered to rodent populations. Mice are intravenously, intramuscularly, intraarterially, or intratumorally administered a single dose including a nanoparticle composition with a formulation such as those provided in Table 1. In some instances, mice may be made to inhale doses. Dose sizes may range from 0.001 mg/kg to 10 mg/kg, where 10 mg/kg describes a dose including 10 mg of a therapeutic and/or prophylactic agent in a nanoparticle composition for each 1 kg of body mass of the mouse. A control composition including PBS may also be employed.
Upon administration of nanoparticle compositions to mice, dose delivery profiles, dose responses, and toxicity of particular formulations and doses thereof can be measured by enzyme-linked immunosorbent assays (ELISA), bioluminescent imaging, or other methods. For nanoparticle compositions including mRNA, time courses of protein expression can also be evaluated. Samples collected from the rodents for evaluation may include blood, sera, and tissue (for example, muscle tissue from the site of an intramuscular injection and internal tissue); sample collection may involve sacrifice of the animals.
The efficacy of the nanoparticle compositions presented in Tables 1, 1a, 17-1, 19-1, 20-1 and 21-1 was evaluated with a bioluminescence study. Formulations were administered intravenously to mice (n=6) at a dosage of 0.5 mg/kg (mpk) and bioluminescence measured at 3, 6, and 24 hour time points. The standard MC3 formulation and a PBS control were evaluated for comparison.

[6] = Table 1, rows without footnote mark
[7] = Table 1, rows without footnote mark (lipid:DOPE:cholesterol:PEG-DMG 40:20:38.5:1.5, Luc mRNA; MC3 standard formulation)
[8] = Table 20-1, rows without footnote mark
[9] = Table 1, * lipid:DSPC:Chol:PEG-DMG 50:10:38.5:1.5

Structure (SMILES): CCCCCCCC/C=C\CCCCCCCCN(CCCCCCCC/C=C\CCCCCCCC)CCN(CCCCCCCC/C=C\CCCCCCCC)CCN1CCN(CCN(CCCCCCCC/C=C\CCCCCCCC)CCCCCCCC/C=C\CCCCCCCC)CC1 [Formula IV, N^1-(2-(4-(2-(Di((Z)-octadec-9-en-1-yl)amino)ethyl)piperazin-1-yl)ethyl)-N^1,N^2,N^2-tri((Z)-octadec-9-en-1-yl)ethane-1,2-diamine]
- pKa [1, 6]: 6.25
- Size (nm) [2, 7]: 94.2 nm
- EE (%) [3, 6]: 97.6%
- Total Flux Liver ([4]; Table 3, mice, liver): 9.15E+08
- Total Flux Spleen ([4]; Table 3, mice): 6.15E+08

Structure (SMILES): CCCCCCCCCCCCN(CCCCCCCCCCCC)CCN1CCN(CCN(CCCCCCCCCCCC)C(=O)CN(CCCCCCCCCCCC)CCCCCCCCCCCC)CC1 [Compound 1, 2-(Didodecylamino)-N-(2-(4-(2-(didodecylamino)ethyl)piperazin-1-yl)ethyl)-N-dodecylacetamide]
- pKa [1, 6]: 5.95
- Size (nm) [2, 7]: 203.2 nm
- particle size, rank within the named table (in words) [2]: largest particles
- EE (%) [3, 6]: 46.2%
- encapsulation efficiency, rank within the named table (in words) [3]: lowest

Structure (SMILES): CCCCC/C=C\CCCCCN(CCCCCCCCCCCC)CCN1CCN(CCN(CCCCCCCCCCCC)CCN(CCCCCCCCCCCC)CCCCCCCCCCCC)CC1 [Compound 24, (Z)—N^1-(2-(4-(2-(Dodec-6-en-1-yl(dodecyl)amino)ethyl)piperazin-1-yl)ethyl)-N^1,N^2,N^2-tridodecylethane-1,2-diamine]
- pKa [1, 9]: 6.01
- Size (nm) ([2]; Table 1, * formulated with lipid:DSPC:Chol:PEG-DMG 50:10:38.5:1.5): 110.4 nm
- PDI [2, 9]: 0.131
- EE (%) [3, 9]: 36.4%
- encapsulation efficiency, rank within the named table (in words) [3]: lowest

More lines, main results first:

- pKa [1, 8]: 6.41
- PDI [2, 8]: 0.159
- Size (nm) [2, 8]: 86.8 nm
- EE (%) [3, 8]: 95.2%
Structure (SMILES): CCCCCCCCCCCCN(CCO)CCN(CCCCCCCCCCCC)CCCCCCCCCCCC [Compound 20-20, 2-((2-(Didodecylamino)ethyl)(dodecyl)amino)ethan-1-ol]
- Total Flux Liver ([4]; Table 20-3, mice, liver): 8.92E+08
- Total Flux Lung ([4]; Table 20-3, mice): 1.12E+06
- Total Flux Spleen ([4]; Table 20-3, mice): 1.39E+07
- Total Flux 3 hours ([5]; Table 20-2): 4.56E+09
- Total Flux 6 hours ([5]; Table 20-2): 3.27E+09
- Total Flux 24 hours ([5]; Table 20-2): 3.56E+08

- pKa ([1]; Table 21-1): 6.98
- PDI ([2]; Table 21-1): 0.200
- Size (nm) ([2]; Table 21-1): 83.0 nm
- particle size, rank within the named table (in words) [2]: smallest particles
- EE (%) ([3]; Table 21-1): 99.4%
Structure (SMILES): CCCCC/C=C\C/C=C\CCCCCCCCC1(CCCCCCCC/C=C\C/C=C\CCCCC)CC(OC(=O)CCCN(C)C)C1 [Compound 21-2, 3,3-Di((9Z,12Z)-octadeca-9,12-dien-1-yl)cyclobutyl 4-(dimethylamino)butanoate]
- Total Flux Liver ([4]; Table 21-3, mice, liver): 5.50E+07
- Total Flux Lung ([4]; Table 21-3, mice): 2.53E+05
- Total Flux Spleen ([4]; Table 21-3, mice): 1.56E+07
- total flux in organs, rank or organ comparison (in words) ([4]; mice): lowest expression in each organ
- Total Flux 3 hours ([5]; Table 21-2): 5.99E+08
- Total Flux 6 hours ([5]; Table 21-2): 8.09E+08
- Total Flux 24 hours ([5]; Table 21-2): 8.09E+08
- total flux / Luc expression, rank within the named table (in words) [5]: least expression at 3 and 6 hours

- pKa ([1]; Table 21-1): 6.99
- PDI ([2]; Table 21-1): 0.110
- Size (nm) ([2]; Table 21-1): 86.8 nm
- EE (%) ([3]; Table 21-1): 98.9%
Structure (SMILES): CCCCC/C=C\C/C=C\CCCCCCCC1C(CCCCCCC/C=C\C/C=C\CCCCC)C1CN(C)C (stereo not drawn) [Compound 21-6, 1-(2,3-Di((8Z,11Z)-heptadeca-8,11-dien-1-yl)cyclopropyl)-N,N-dimethylmethanamine]
- Total Flux Liver ([4]; Table 21-3, mice, liver): 4.79E+08
- Total Flux Lung ([4]; Table 21-3, mice): 2.09E+06
- Total Flux Spleen ([4]; Table 21-3, mice): 1.94E+07
- Total Flux 3 hours ([5]; Table 21-2): 2.92E+09
- Total Flux 6 hours ([5]; Table 21-2): 4.54E+09
- Total Flux 24 hours ([5]; Table 21-2): 1.40E+08

- pKa ([1]; Table 21-1): 7.01
- PDI ([2]; Table 21-1): 0.193
- Size (nm) ([2]; Table 21-1): 94.9 nm
- EE (%) ([3]; Table 21-1): 98.8%
Structure (SMILES): CCCCC/C=C\C/C=C\CCCCCCCCC1(CCCCCCCC/C=C\C/C=C\CCCCC)CCC(OC(=O)CCCN(C)C)C1 (stereo not drawn) [Compound 21-4, 3,3-Di((9Z,12Z)-octadeca-9,12-dien-1-yl)cyclopentyl 4-(dimethylamino)butanoate]
- Total Flux Liver ([4]; Table 21-3, mice, liver): 9.89E+07
- Total Flux Lung ([4]; Table 21-3, mice): 2.13E+05
- Total Flux Spleen ([4]; Table 21-3, mice): 1.27E+07
- total flux in organs, rank or organ comparison (in words) ([4]; mice): lowest expression in each organ
- Total Flux 3 hours ([5]; Table 21-2): 1.15E+09
- Total Flux 6 hours ([5]; Table 21-2): 1.26E+09
- Total Flux 24 hours ([5]; Table 21-2): 1.26E+09

- pKa ([1]; Table 21-1): 6.07
- PDI ([2]; Table 21-1): 0.237
- Size (nm) ([2]; Table 21-1): 119.9 nm
- particle size, rank within the named table (in words) [2]: largest particles
- EE (%) ([3]; Table 21-1): 98.4%
Structure (SMILES): CCCCC/C=C\C/C=C\CCCCCCCCC1(CCCCCCCC/C=C\C/C=C\CCCCC)CC1CN(C)C (stereo not drawn) [Compound 21-1, 1-(2,2-Di((9Z,12Z)-octadeca-9,12-dien-1-yl)cyclopropyl)-N,N-dimethylmethanamine]
- Total Flux Liver ([4]; Table 21-3, mice, liver): 3.62E+08
- Total Flux Lung ([4]; Table 21-3, mice): 5.44E+05
- Total Flux Spleen ([4]; Table 21-3, mice): 3.27E+07
- Total Flux 3 hours ([5]; Table 21-2): 3.66E+09
- Total Flux 6 hours ([5]; Table 21-2): 4.19E+09
- Total Flux 24 hours ([5]; Table 21-2): 4.19E+09

- pKa ([1]; Table 19-1): 7.32
- PDI ([2]; Table 19-1): 0.239
- Size (nm) ([2]; Table 19-1): 72.0 nm
- EE (%) ([3]; Table 19-1): 98.8%
Structure (SMILES): CCCCCCCCCCCCN(CCCCCCCCCCCC)CCN1CCNCC1 [Compound 19-2, N-Dodecyl-N-(2-(piperazin-1-yl)ethyl)dodecan-1-amine]
- Total Flux Liver ([4]; Table 19-3, mice, liver): 5.73E+04
- Total Flux Lung ([4]; Table 19-3, mice): 2.33E+04
- Total Flux Spleen ([4]; Table 19-3, mice): 3.56E+04
- total flux in the liver, rank within the named table (in words) ([4]; mice, liver): lowest total flux in the liver
- Total Flux 3 hours ([5]; Table 19-2): 1.96E+05
- Total Flux 6 hours ([5]; Table 19-2): 3.51E+05
- Total Flux 24 hours ([5]; Table 19-2): 2.29E+05
- total flux / Luc expression, rank within the named table (in words) [5]: lowest total flux

- pKa ([1]; Table 19-1): 6.32
- PDI ([2]; Table 19-1): 0.204
- Size (nm) ([2]; Table 19-1): 106.9 nm
- EE (%) ([3]; Table 19-1): 93.6%
Structure (SMILES): CCCCCCCCCCCCN(CCCCCCCCCCCC)CCN1CCN(Cc2ccc(OC)cc2)CC1 [Compound 19-5, N-Dodecyl-N-(2-(4-(4-methoxybenzyl)piperazin-1-yl)ethyl)dodecan-1-amine]
- Total Flux Liver ([4]; Table 19-3, mice, liver): 5.99E+06
- Total Flux Lung ([4]; Table 19-3, mice): 3.46E+04
- Total Flux Spleen ([4]; Table 19-3, mice): 2.10E+05
- Total Flux 3 hours ([5]; Table 19-2): 2.37E+07
- Total Flux 6 hours ([5]; Table 19-2): 1.44E+07
- Total Flux 24 hours ([5]; Table 19-2): 2.76E+06
- total flux / Luc expression, rank within the named table (in words) [5]: next highest flux
